Measurements from US20260345798A1, “COMPOUNDS AND METHODS OF USE THEREOF” (Virginia Commonwealth University, priority 2023, published 2026).
Residues, ends and D or L forms follow the SMILES beside them.

Key:
[1] = test system: T cell, MDSC and Treg populations; experiment: Flow cytometry of immune cells in lungs of B16-injected mice; format: in vivo, mouse; conditions: 30 mg/kg I.P., 6 injections
Description: FIG. 6B is a series of histograms showing the number of nodules/lung, T cell populations (CD8^+IFN-γ^+) and myeloid-derived suppressor cells (MDSCs) in the lungs of the treatment groups described in FIG. 6A, as measured by flow cytometry. *: Statistical significance (p<0.05);**: Statistical significance (p<0.01);***: Statistical significance (p<0.001). ****: Statistical significance (p<0.0001).
FIG. 15 is a histogram showing the comparative effect of DMSO and IVMT-Rx-3 on Treg populations, as measured by flow cytometry. 5×10^5 B16 cells were injected intravenously in C57BL/6 mice, and the mice were treated with DMSO control or IVMT-Rx-3 (intraperitoneal injection 30 mg/kg, 3× in a week, 6 injections in total). MDSC (Cd11^+Gr1^+) and Treg populations (CD4^+CD25^+[…]) in the lungs were measured by flow cytometry.
Single cells were isolated from lungs by digestion with collagenase D and DNAse I. Cells were stained with the corresponding antibodies and fluorescence signals were measured with a BD Fortessa flow cytometer (BD Biosciences, San Jose, CA). Data were analyzed further with FACs DIVA software (BD Biosciences, San Jose, CA) (18). The antibodies used in this study were CD3, Gr1, CD11b, IFN-γ, CD45, CD8 (Biolegend, San Diego, CA, USA). CD4 (BD Biosciences, San Jose, CA, USA), CD25, and FOXP3 (eBiosciences, CA, USA).

IGFBP-2 = IGFBP-2 ELISA in conditioned media; format: cell-based, human; conditions: 10, 25 or 50 μM, 24 hr
Method: FIG. 5C is a series of histograms showing the amount of IGFBP-2 secreted from A-375, C8161.9, TPF-19-219, TPF-19-235, and TPF-16-238 cells treated with varying concentrations of IVMT-Rx-3, as measured by ELISA.
IGFBP-2 levels in conditioned media were determined using an IGFBP-2 ELISA kit (R&D systems, USA) according to the manufacturer's instructions (9). Each sample was repeated three times, and represented graphically with GraphPad Prism software.
Insulin Growth Factor Binding Protein-2 (IGFBP-2) has been found in higher levels in the serum of individuals with diverse types of pathological conditions and is very germane in the context of angiogenesis, tumor promotion and chemoresistance (33). Since Src activation is critical for IGFBP-2 induced angiogenesis, a potential suppressive function of IVMT-Rx-3 on IGFBP-2 expression levels was investigated (9). Melanoma cells were treated with different doses (10, 25 or 50 μM) of IVMT-Rx-3 for 24 hr. and levels of IGFBP-2 in the media were determined using ELISA (FIG. 5C). […] Blocking MDA-9/Syntenin expression inhibits the secretion of cytokines/growth factors in breast cancer resulting in the conversion of an immunosuppressive to immunostimulatory microenvironment (23). Accordingly, the level of specific melanoma metastasis-associated cytokines, e.g., IL-6, IL-10, IL-16, following treatment with IVMT-Rx-3 was analyzed. […]

MDA-9/Syntenin: Src = target: T1, MDA-9/Syntenin: Src (Homo sapiens, UniProt O00560); experiment: Co-immunoprecipitation MDA-9/Syntenin: Src; format: cell-based; conditions: C8161.9 and A-375 cells; co-IP after 12 hours treatment, fibronectin-coated plates
T1 construct: co-immunoprecipitation with anti-MDA-9
T1 sequence (O00560 whole entry): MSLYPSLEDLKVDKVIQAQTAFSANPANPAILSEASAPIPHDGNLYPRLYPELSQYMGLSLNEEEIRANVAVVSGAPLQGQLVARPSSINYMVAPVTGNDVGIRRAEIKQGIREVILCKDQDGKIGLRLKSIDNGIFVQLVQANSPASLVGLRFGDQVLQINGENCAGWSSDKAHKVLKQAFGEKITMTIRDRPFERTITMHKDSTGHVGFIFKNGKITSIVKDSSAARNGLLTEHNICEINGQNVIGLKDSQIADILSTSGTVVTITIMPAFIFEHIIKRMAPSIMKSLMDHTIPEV
Method: FIG. 4A is an immunoblot of C8161.9 and A-375 cells treated for 12 hours with either DMSO vehicle or IVMT-Rx-3 at different doses (as indicated) and re-plated onto fibronectin-coated plates. After 30 minutes, cell lysates were immunoprecipitated and immunoblotted with the indicated antibodies.
Co-immunoprecipitation studies were performed as described previously using immunoprecipitation kits with Dynabeads® Protein G (Life Technologies) (7,8). Briefly, 30 min. after plating cells on fibronectin-coated plates, protein lysates were prepared. 200 μg of total cellular protein was incubated with anti-IgG or anti-MDA-9 overnight to facilitate binding. After subsequent washing and elution from beads, Western blotting was performed with specific antibodies.

MMP-2 and MMP-9 [2] = experiment: MMP-2 and MMP-9 mRNA by real time qPCR, human melanoma cells; format: cell-based; conditions: FIG. 5A
Description: FIG. 5A is a series of histograms showing the MMP-2 and MMP-9 mRNA transcriptional activity in established human melanoma cells (A-375, C8161.9, and MeWo cells) and patient-derived early passage human melanoma cells (TPF-19-219, TPF-19-235, and TPF-16-238 cells) treated with IVMT-Rx-3 at varying doses, as determined by qPCR. *: Statistical significance (p<0.05).
(§1) Total cellular RNA was extracted using an RNAeasy kit (Qiagen, Germany) as described previously (8,9). All Taqman probes used in this study were obtained from Applied Biosystems (Applied Biosystems, Foster City, CA). Real time PCR was performed using an ABI ViiA7 fast real-time PCR system (Applied Biosystems, Foster City, CA).

T cells = experiment: T cell infiltration into the tumor environment; format: in vivo; conditions: targeting MDA-9/Syntenin
MMP-2 and MMP-9 [3] = experiment: MMP-2 and MMP-9 mRNA by qPCR, B16 cells; format: cell-based; conditions: B16 mouse melanoma cells
Method: FIG. 13C is a series of histograms showing the MMP-2 and MMP-9 mRNA fold change in the cells treated as described in FIG. 13A, as determined by qPCR. *: Statistical significance (p<0.05).
as §1

[4] = Toxicity in pre-clinical animal models; conditions: in vivo

## Cc1cc(NC(=O)c2nc3[nH]c4c(c(=O)n3n2)CCC4)c(C)cc1NC(=O)CCOCCC(=O)N[C@H](C(=O)N[C@@H](CC(N)=O)C(=O)N[C@@H](CCC(=O)O)C(=O)N[C@@H](Cc1ccc(O)cc1)C(=O)N[C@@H](Cc1ccc(O)cc1)C(=O)N[C@H](C(=O)O)C(C)C)[C@@H](C)O [IVMT-Rx-3] (HELM PEPTIDE1{[Cc1cc(NC(=O)c2nc3[nH]c4c(c(=O)n3n2)CCC4)c(C)cc1NC(=O)CCOCCC(=O)[*:2]].T.N.E.Y.Y.V}$$$$V2.0)
[1]
  IFN-γ-producing CD8+ T cell populations: significant increase
  MDSC populations: suppression of MDSCs
[1]; 5×10^5 B16 cells
  Treg population: no significant changes
IGFBP-2
  IGFBP-2 in tumor-derived media: dose-dependent downregulation
MDA-9/Syntenin: Src
  disruption of MDA-9/Syntenin: Src interactions: disrupted MDA-9/Syntenin: Src interactions
MMP-2 and MMP-9 [2]
  MMP-2 and MMP-9 mRNA expression (transcriptional level): down regulation
T cells
  T cell infiltration into the tumor environment: causes T cell infiltration into the tumor environment
MMP-2 and MMP-9 [3]
  expression of MMP-2 and MMP-9: lower expression of MMP-2 and MMP-9
[4]
  toxicity in pre-clinical animal models: without provoking toxicity
